Reference: US12139520B2 (priority 2020, dated 2024)
Bridge positions count the residues as written; N and C are the ends. Square brackets hold non-standard residues; d marks the D form. Peptide text beside a SMILES is read from it. Hyp = O=C(O)[C@@H]1C[C@@H](O)CN1; Cit = NC(=O)NCCC[C@H](N)C(=O)O

Experiments:
hAMY3 receptor = biological target: T1, hAMY3 receptor (Homo sapiens, UniProt O60896+P30988); assay: cAMP assay for in vitro receptor activation, hAMY3-R; type: cell-based; conditions: cAMP assay, hAMY3 receptor; read-out: hAMY3R EC50
T1 sequence (P30988 25-474): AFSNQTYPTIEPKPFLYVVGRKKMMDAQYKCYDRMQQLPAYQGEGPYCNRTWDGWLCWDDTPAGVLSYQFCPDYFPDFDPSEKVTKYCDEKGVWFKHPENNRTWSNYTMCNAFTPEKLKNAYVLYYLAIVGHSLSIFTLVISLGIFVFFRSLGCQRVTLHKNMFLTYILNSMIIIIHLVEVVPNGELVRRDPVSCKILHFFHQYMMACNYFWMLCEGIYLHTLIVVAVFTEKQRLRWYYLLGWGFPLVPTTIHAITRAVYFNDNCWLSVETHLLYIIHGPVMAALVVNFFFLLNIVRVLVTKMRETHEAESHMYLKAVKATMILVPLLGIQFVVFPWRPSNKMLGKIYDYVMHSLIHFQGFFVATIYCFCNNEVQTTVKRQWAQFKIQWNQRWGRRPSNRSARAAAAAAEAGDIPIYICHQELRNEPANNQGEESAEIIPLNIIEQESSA
T1 sequence (O60896 24-148 partner): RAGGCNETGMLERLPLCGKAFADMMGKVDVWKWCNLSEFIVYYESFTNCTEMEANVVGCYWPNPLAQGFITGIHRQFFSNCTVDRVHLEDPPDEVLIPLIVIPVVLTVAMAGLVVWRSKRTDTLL
Method in brief: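 Accumulated cAMP was detected by time-resolved FRET one hour after reagent addition. Beforehand, hAMY3-R-overexpressing monoclonal cells (2000/well, DPBS, 0.05% casein, 0.5 mM IBMX) received graded doses of compound for 30 min at room temperature; human amylin served as positive control.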

[1] = Physical stability of peptide analogues (Thioflavin T fibrillation); type: physicochemical; conditions: maximum ThT signal normalized between hAMY maximum and buffer background; 40° C., shaking, four days; pH 7 per table title
Method in brief: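 Peptides in 50 mM sodium acetate pH 4 or 50 mM sodium phosphate pH 7 were preincubated 1 h, mixed with 4 μM ThT, held at 40° C with 700 rpm shaking before each read. Fluorescence (ex 450/em 480 nm) every 10 min for four days; LOESS-smoothed maximum signal normalized in percent between hAMY and buffer.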

SMILES	EC50 (hAMY3 receptor)	Max ThT signal (%) [1]
CC[C@H](C)[C@H](NC(=O)[C@H](CCC(N)=O)NC(=O)[C@H](Cc1c[nH]cn1)NC(=O)[C@H](C)NC(=O)[C@H](CC(C)C)NC(=O)[C@H](CCCNC(=N)N)NC(=O)[C@H](CCC(N)=O)NC(=O)[C@@H](NC(=O)[C@@H](NC(=O)[C@@H]1CSSC[C@H](NC(=O)CN)C(=O)N[C@@H](CCCNC(=N)N)C(=O)N[C@@H](Cc2ccccc2)C(=O)NCC(=O)N[C@@H]([C@@H](C)O)C(=O)N1)[C@@H](C)O)C(C)C)C(=O)N[C@@H](Cc1ccc(O)cc1)C(=O)N[C@@H](CCC(N)=O)C(=O)N[C@@H](Cc1ccccc1)C(=O)N[C@H](C(=O)N[C@@H](CC(=O)O)C(=O)N[C@@H](CCCCN)C(=O)N[C@@H](CC(=O)O)C(=O)N[C@@H](CCCCN)C(=O)N[C@@H](CC(=O)O)C(=O)N[C@@H](CC(N)=O)C(=O)N[C@H](C(=O)N[C@@H](C)C(=O)N1CCC[C@H]1C(=O)N[C@@H](CCCNC(=N)N)C(=O)N[C@H](C(=O)N[C@@H](CCCCN)C(=O)N[C@H](C(=O)N[C@@H](CO)C(=O)N1CCC[C@H]1C(=O)N[C@@H](CC(N)=O)C(=O)NCC(=O)N1C[C@H](O)C[C@H]1C(N)=O)[C@@H](C)CC)[C@@H](C)O)C(C)C)[C@@H](C)O [compound 113] (H-GCRFGTCTVQRLAHQIYQFTDKDKDNVAPRTKISPNG[Hyp]-NH2; disulfide 2-7; N-terminus assumed)	0.022 nM	14.700%
CC[C@H](C)[C@H](NC(=O)[C@H](CCC(N)=O)NC(=O)[C@H](Cc1c[nH]cn1)NC(=O)[C@H](C)NC(=O)[C@H](CC(C)C)NC(=O)[C@H](CCCNC(N)=O)NC(=O)[C@H](CCC(N)=O)NC(=O)[C@@H](NC(=O)[C@@H](NC(=O)[C@@H]1CSSC[C@H](NC(=O)CN)C(=O)N[C@@H](CCCNC(=N)N)C(=O)N[C@@H](Cc2ccccc2)C(=O)NCC(=O)N[C@@H]([C@@H](C)O)C(=O)N1)[C@@H](C)O)C(C)C)C(=O)N[C@@H](Cc1ccc(O)cc1)C(=O)N[C@@H](CCC(N)=O)C(=O)N[C@@H](Cc1ccccc1)C(=O)N[C@H](C(=O)N[C@@H](CC(=O)O)C(=O)N[C@@H](CCCCN)C(=O)N[C@@H](CC(=O)O)C(=O)N[C@@H](CCCCN)C(=O)N[C@@H](CC(=O)O)C(=O)N[C@@H](CC(N)=O)C(=O)N[C@H](C(=O)N[C@@H](C)C(=O)N1CCC[C@H]1C(=O)N[C@@H](CCCNC(=N)N)C(=O)N[C@H](C(=O)N[C@@H](CC(N)=O)C(=O)N[C@H](C(=O)N[C@@H](CO)C(=O)N1CCC[C@H]1C(=O)N[C@@H](CC(N)=O)C(=O)NCC(=O)N[C@@H](Cc1ccc(O)cc1)C(N)=O)C(C)C)[C@@H](C)O)C(C)C)[C@@H](C)O [compound 271] (H-GCRFGTCTVQ[Cit]LAHQIYQFTDKDKDNVAPRTNVSPNGY-NH2; disulfide 2-7; N-terminus assumed)	0.01 nM	10.850%
CC[C@H](C)[C@H](NC(=O)[C@H](CC(N)=O)NC(=O)[C@H](CO)NC(=O)[C@H](CCCNC(=N)N)NC(=O)[C@@H]1CCCN1C(=O)[C@H](C)NC(=O)[C@@H](NC(=O)[C@H](CC(N)=O)NC(=O)[C@H](CC(=O)O)NC(=O)[C@H](CCCCN)NC(=O)[C@H](CC(=O)O)NC(=O)[C@H](CCCCN)NC(=O)[C@H](CC(=O)O)NC(=O)[C@@H](NC(=O)[C@H](Cc1ccccc1)NC(=O)[C@H](CCC(N)=O)NC(=O)[C@H](Cc1ccc(O)cc1)NC(=O)[C@@H](NC(=O)[C@H](CCC(N)=O)NC(=O)[C@H](Cc1c[nH]cn1)NC(=O)[C@H](C)NC(=O)[C@H](CC(C)C)NC(=O)[C@H](CCCNC(=N)N)NC(=O)[C@H](CCC(N)=O)NC(=O)[C@@H](NC(=O)[C@@H](NC(=O)[C@@H]1CSSC[C@H](NC(=O)CN)C(=O)N[C@@H](CCCNC(=N)N)C(=O)N[C@@H]([C@@H](C)O)C(=O)NCC(=O)N[C@@H]([C@@H](C)O)C(=O)N1)[C@@H](C)O)C(C)C)[C@@H](C)CC)[C@@H](C)O)C(C)C)C(=O)NCC(=O)N1CCC[C@H]1C(=O)N[C@@H](CCC(N)=O)C(=O)NCC(=O)N[C@@H](Cc1ccc(O)cc1)C(N)=O [compound 191] (H-GCRTGTCTVQRLAHQIYQFTDKDKDNVAPRSNIGPQGY-NH2; disulfide 2-7; N-terminus assumed)	0.098 nM	6.300%

Other lines, results leading:

EC50 (hAMY3 receptor)	Max ThT signal (%) [1]	SMILES
0.007 nM	30.900%	CC[C@H](C)[C@H](NC(=O)[C@H](CCC(N)=O)NC(=O)[C@H](Cc1c[nH]cn1)NC(=O)[C@H](C)NC(=O)[C@H](CC(C)C)NC(=O)[C@H](CCCNC(N)=O)NC(=O)[C@H](CCC(N)=O)NC(=O)[C@@H](NC(=O)[C@@H](NC(=O)[C@@H]1CSSC[C@H](NC(=O)CN)C(=O)N[C@@H](CCCNC(=N)N)C(=O)N[C@@H](Cc2ccccc2)C(=O)NCC(=O)N[C@@H]([C@@H](C)O)C(=O)N1)[C@@H](C)O)C(C)C)C(=O)N[C@@H](Cc1ccc(O)cc1)C(=O)N[C@@H](CCC(N)=O)C(=O)N[C@@H](Cc1ccccc1)C(=O)N[C@H](C(=O)N[C@@H](CC(=O)O)C(=O)N[C@@H](CCCCN)C(=O)N[C@@H](CC(=O)O)C(=O)N[C@@H](CCCCN)C(=O)N[C@@H](CC(=O)O)C(=O)N[C@@H](CC(N)=O)C(=O)N[C@H](C(=O)N[C@@H](C)C(=O)N1CCC[C@H]1C(=O)N[C@@H](CCCNC(=N)N)C(=O)N[C@H](C(=O)N[C@@H](CC(N)=O)C(=O)N[C@H](C(=O)NCC(=O)N1CCC[C@H]1C(=O)N[C@@H](CCC(N)=O)C(=O)NCC(=O)N1C[C@H](O)C[C@H]1C(N)=O)C(C)C)[C@@H](C)O)C(C)C)[C@@H](C)O [compound 267] (H-GCRFGTCTVQ[Cit]LAHQIYQFTDKDKDNVAPRTNVGPQG[Hyp]-NH2; disulfide 2-7; N-terminus assumed)
0.027 nM	30.300%	CC[C@H](C)[C@H](NC(=O)[C@H](CCC(N)=O)NC(=O)[C@H](Cc1c[nH]cn1)NC(=O)[C@H](C)NC(=O)[C@H](CC(C)C)NC(=O)[C@H](Cc1c[nH]c2ccccc12)NC(=O)[C@H](CCC(N)=O)NC(=O)[C@@H](NC(=O)[C@@H](NC(=O)[C@@H]1CSSC[C@H](NC(=O)CN)C(=O)N[C@@H](CCCNC(=N)N)C(=O)N[C@@H](Cc2ccccc2)C(=O)NCC(=O)N[C@@H]([C@@H](C)O)C(=O)N1)[C@@H](C)O)C(C)C)C(=O)N[C@@H](Cc1ccc(O)cc1)C(=O)N[C@@H](CCC(N)=O)C(=O)N[C@@H](Cc1ccccc1)C(=O)N[C@H](C(=O)N[C@@H](CC(=O)O)C(=O)N[C@@H](CCCCN)C(=O)N[C@@H](CC(=O)O)C(=O)N[C@@H](CCCCN)C(=O)N[C@@H](CC(=O)O)C(=O)N[C@@H](CC(N)=O)C(=O)N[C@H](C(=O)N[C@@H](C)C(=O)N1CCC[C@H]1C(=O)N[C@@H](CCCNC(=N)N)C(=O)N[C@@H](CO)C(=O)N[C@@H](CCCCN)C(=O)N[C@H](C(=O)NCC(=O)N1CCC[C@H]1C(=O)N[C@@H](CCC(N)=O)C(=O)NCC(=O)N1C[C@H](O)C[C@H]1C(N)=O)C(C)C)C(C)C)[C@@H](C)O [compound 353] (H-GCRFGTCTVQWLAHQIYQFTDKDKDNVAPRSKVGPQG[Hyp]-NH2; disulfide 2-7; N-terminus assumed)
0.019 nM	26.800%	CC[C@H](C)[C@H](NC(=O)[C@H](CCCCN)NC(=O)[C@@H](NC(=O)[C@H](CCCNC(=N)N)NC(=O)[C@@H]1CCCN1C(=O)[C@H](C)NC(=O)[C@@H](NC(=O)[C@H](CC(N)=O)NC(=O)[C@H](CC(=O)O)NC(=O)[C@H](CCCCN)NC(=O)[C@H](CC(=O)O)NC(=O)[C@H](CCCCN)NC(=O)[C@H](CC(=O)O)NC(=O)[C@@H](NC(=O)[C@H](Cc1ccccc1)NC(=O)[C@H](CCC(N)=O)NC(=O)[C@H](Cc1ccc(O)cc1)NC(=O)[C@@H](NC(=O)[C@H](CCC(N)=O)NC(=O)[C@H](Cc1c[nH]cn1)NC(=O)[C@H](C)NC(=O)[C@H](CC(C)C)NC(=O)[C@H](CCCNC(N)=O)NC(=O)[C@H](CCC(N)=O)NC(=O)[C@@H](NC(=O)[C@@H](NC(=O)[C@@H]1CSSC[C@H](NC(=O)CN)C(=O)N[C@@H](CCCNC(=N)N)C(=O)N[C@@H](Cc2ccccc2)C(=O)NCC(=O)N[C@@H]([C@@H](C)O)C(=O)N1)[C@@H](C)O)C(C)C)[C@@H](C)CC)[C@@H](C)O)C(C)C)[C@@H](C)O)C(=O)NCC(=O)N1CCC[C@H]1C(=O)N[C@@H](CCC(N)=O)C(=O)NCC(=O)N1C[C@H](O)C[C@H]1C(N)=O [compound 274] (H-GCRFGTCTVQ[Cit]LAHQIYQFTDKDKDNVAPRTKIGPQG[Hyp]-NH2; disulfide 2-7; N-terminus assumed)
